Measured values from paper doi:10.64898/2025.12.04.692444v1, “Calcium Dependent Protein Kinase 3 is not essential for the asexual replication of Plasmodium falciparum” (biorxiv, 2025).

Tests used:
[1] = biological target: T1, PfCDPK3 (full-length recombinant CDPK3) (Plasmodium falciparum, UniProt Q9NJU9); assay: ADP-Glo luminescence kinase assay; format: biochemical; settings: MBP as exogenous substrate; 100 µM ATP; 5 mM CaCl2; 20 mM MgCl2; 40 mM Tris-Cl pH 7.5; 30 °C, 1 h
T1 construct: some truncated fragments
T1 sequence (Q9NJU9 1-562): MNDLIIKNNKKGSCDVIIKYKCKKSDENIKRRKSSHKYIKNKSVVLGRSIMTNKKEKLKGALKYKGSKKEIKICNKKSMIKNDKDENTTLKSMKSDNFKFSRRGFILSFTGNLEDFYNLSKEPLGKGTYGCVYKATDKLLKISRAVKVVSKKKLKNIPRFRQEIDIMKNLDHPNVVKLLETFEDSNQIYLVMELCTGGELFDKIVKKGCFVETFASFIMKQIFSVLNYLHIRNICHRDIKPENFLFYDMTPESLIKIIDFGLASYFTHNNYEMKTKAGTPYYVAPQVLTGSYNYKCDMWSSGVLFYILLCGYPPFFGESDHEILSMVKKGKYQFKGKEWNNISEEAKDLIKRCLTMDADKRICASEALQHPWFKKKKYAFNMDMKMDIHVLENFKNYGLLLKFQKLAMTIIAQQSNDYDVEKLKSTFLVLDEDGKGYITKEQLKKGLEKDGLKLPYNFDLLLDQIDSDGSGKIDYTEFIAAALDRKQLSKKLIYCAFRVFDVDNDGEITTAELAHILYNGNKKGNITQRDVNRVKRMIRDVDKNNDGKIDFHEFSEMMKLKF

[2] = biological target: T1, PfCDPK3 (full-length recombinant CDPK3); assay: semi-synthetic epitope tagging: thiophosphorylation, PNBM alkylation, anti-thiophosphate ester Western blot; format: biochemical; settings: GST as exogenous substrate; 100 µM ATPγS; 5 mM CaCl2; 50 mM MgCl2; 50 mM Tris; 30 °C, 2 h

SMILES | ADP-Glo luminescence kinase assay [1] | semi-synthetic epitope tagging: thiophosphorylation, PNBM alkylation, anti-thiop [2]
Nc1ncnc2c1ncn2[C@@H]1O[C@H](COP(=O)(O)OP(=O)(O)OP(=O)(O)O)[C@@H](O)[C@H]1O [ATP] | conversion of ATP to ADP by the recombinant CDPK3, was higher in the presence of calcium | –
Nc1ncnc2c1ncn2[C@@H]1O[C@H](COP(=O)(O)OP(=O)(O)OP(O)(O)=S)[C@@H](O)[C@H]1O [ATPγS] | – | ATPγS, a ATP analog, containing terminal thiophosphate group was used as the source
